Assays:
[1] = target: T1, Escherichia coli aldehyde dehydrogenase ecoALDH (aldA), SEQ ID NO: 265 (Escherichia coli, UniProt P25553); assay: Aldehyde dehydrogenase (glycolaldehyde to glycolic acid) kinetics, ecoALDH; format: biochemical
T1 construct: made in house; host or cells: E. coli BL21 (DE3)
T1 sequence (P25553 1-479): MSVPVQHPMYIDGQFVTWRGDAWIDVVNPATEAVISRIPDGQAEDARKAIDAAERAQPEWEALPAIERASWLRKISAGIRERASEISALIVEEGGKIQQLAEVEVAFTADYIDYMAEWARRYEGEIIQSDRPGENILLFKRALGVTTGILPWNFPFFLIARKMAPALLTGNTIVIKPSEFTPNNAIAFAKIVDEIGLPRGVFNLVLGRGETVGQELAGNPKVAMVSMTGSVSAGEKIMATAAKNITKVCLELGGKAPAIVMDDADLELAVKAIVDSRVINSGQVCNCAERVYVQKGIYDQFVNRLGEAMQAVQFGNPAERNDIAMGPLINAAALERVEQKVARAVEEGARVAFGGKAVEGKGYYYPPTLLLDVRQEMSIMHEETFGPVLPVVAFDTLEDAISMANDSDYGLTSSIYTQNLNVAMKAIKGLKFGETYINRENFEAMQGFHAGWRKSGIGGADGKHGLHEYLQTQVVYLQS
Excerpt: (§1) Enzyme expression and purification: The enzymes of interest were genetically engineered in the E. coli BL21 (DE3) strain on a high copy plasmid under control of the T7 promoter. The enzymes were tagged with a hexahistidine (His-tag) sequence to facilitate for purification. Post-expression, the His-tagged enzymes were selectively bound to a nickel-charged immobilized metal affinity chromatography (IMAC) resin, exploiting the high affinity between histidine residues and nickel ions. Upon washing away non-specifically bound proteins, the His-tagged enzymes were eluted with an imidazole-containing buffer and subsequently used for enzymatic assays.
(§2) Enzyme assays: Standard enzyme characterization protocols were performed to determine the activities of the enzymes. Dehydrogenase activity against the substrates was determined using a continuous assay following the increase in absorbance at 340 nm ε340 (NADH)=6.22 mM^−1. cm^−1, and ε340 (NADPH)=6.2 mM^−1·cm^−1]. […]
A second enzymatic step in the processes described herein relate to the conversion of an aliphatic polyhydric aldehyde substrate (e.g., glycolaldehyde) to a corresponding alpha-hydroxy acid (e.g., glycolic acid). […] The reaction was initiated by the addition of the purified enzyme, and activity was measured by monitoring the formation of glycolic acid over time. […]

[2] = target: T2, Azotobacter vinelandii aldehyde dehydrogenase aviALDH, SEQ ID NO: 266 (Azotobacter vinelandii, UniProt C1DMY3); assay: Aldehyde dehydrogenase (glycolaldehyde to glycolic acid) kinetics, aviALDH; format: biochemical
T2 sequence (C1DMY3 1-477): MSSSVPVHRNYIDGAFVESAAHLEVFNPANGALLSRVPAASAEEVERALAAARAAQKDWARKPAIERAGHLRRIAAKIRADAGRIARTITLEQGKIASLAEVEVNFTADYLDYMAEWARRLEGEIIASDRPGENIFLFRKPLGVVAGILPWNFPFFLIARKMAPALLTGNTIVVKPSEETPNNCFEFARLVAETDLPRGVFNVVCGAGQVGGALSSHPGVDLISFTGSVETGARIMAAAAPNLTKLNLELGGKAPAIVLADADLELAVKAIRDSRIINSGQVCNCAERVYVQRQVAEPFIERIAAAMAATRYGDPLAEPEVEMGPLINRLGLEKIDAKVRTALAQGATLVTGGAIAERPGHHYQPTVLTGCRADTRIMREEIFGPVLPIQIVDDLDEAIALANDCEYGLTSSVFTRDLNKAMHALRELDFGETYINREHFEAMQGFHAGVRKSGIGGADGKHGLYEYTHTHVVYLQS
Excerpt: as §1
(§3) Enzyme assays: Standard enzyme characterization protocols were performed to determine the activities of the enzymes. Dehydrogenase activity against the substrates was determined using a continuous assay following the increase in absorbance at 340 nm ε340 (NADH)=6.22 mM^−1. cm^−1, and ε340 (NADPH)=6.2 mM^−1·cm^−1]. Substrate screens were performed at 30 °C in a reaction mixture (200 μL) containing 50 mM of substrate in 100 mM Tris-HCl (pH 8.5), 1 mM NAD^+, 1 mM substrate, and 10 μg of purified protein. Initial velocity patterns of the enzymatic reaction were obtained by varying the concentrations of ethylene glycol at fixed concentrations of enzyme concentration in the presence of the saturating NAD concentrations.
(§4) A second enzymatic step in the processes described herein relate to the conversion of an aliphatic polyhydric aldehyde substrate (e.g., glycolaldehyde) to a corresponding alpha-hydroxy acid (e.g., glycolic acid). E. coli aldehyde dehydrogenase aldA (ecoALDH) has been reported to catalyze the intracellular enzymatic conversion of glycolaldehyde (GA) to glycolic acid (e.g., Wada et al. 2005; Morishige et al., 2007; Pandit et al., 2019; Pandit et al., 2021). In order to identify potentially higher-performing enzymes for industrial use capable of converting glycolaldehyde to glycolic acid, we evaluated a plurality of candidates based on either close, medium, or distant phylogeny to ecoALDH (SEQ ID NO: 265). A subset of candidate enzymes were cloned, expressed, and purified, along with ecoALDH as a control, as described in Example 8.1, and their in vitro enzymatic activities were measured in a reaction mixture consisting of 50 mM glycolaldehyde in 100 mM Tris-HCl buffer (pH 8.5). The reaction was initiated by the addition of the purified enzyme, and activity was measured by monitoring the formation of glycolic acid over time. […]

[3] = target: T3, Pseudomonas putida aldehyde dehydrogenase ppuALDH, SEQ ID NO: 267 (Pseudomonas putida, UniProt Q88K06); assay: Aldehyde dehydrogenase (glycolaldehyde to glycolic acid) kinetics, ppuALDH; format: biochemical
T3 sequence (Q88K06 1-503): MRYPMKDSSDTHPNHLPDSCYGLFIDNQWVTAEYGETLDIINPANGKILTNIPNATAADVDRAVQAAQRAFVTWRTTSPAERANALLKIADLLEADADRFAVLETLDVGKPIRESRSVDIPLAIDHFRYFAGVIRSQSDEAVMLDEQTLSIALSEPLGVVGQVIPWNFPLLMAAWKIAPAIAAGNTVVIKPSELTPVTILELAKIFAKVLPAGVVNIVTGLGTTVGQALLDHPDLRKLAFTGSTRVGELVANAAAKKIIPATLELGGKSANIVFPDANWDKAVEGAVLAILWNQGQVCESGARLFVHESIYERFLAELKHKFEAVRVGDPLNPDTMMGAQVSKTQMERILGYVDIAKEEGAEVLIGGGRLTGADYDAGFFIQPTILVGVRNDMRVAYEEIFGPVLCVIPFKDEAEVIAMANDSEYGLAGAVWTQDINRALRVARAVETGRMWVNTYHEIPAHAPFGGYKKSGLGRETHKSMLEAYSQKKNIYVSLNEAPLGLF
Excerpt: as §1
as §3, with “Initial velocity patterns of the enzymatic reaction were obtained by varying the concentrations of ethylene glycol at fixed concentrations of enzyme concentration in the presence of the saturating NAD concentrations.” left out
as §4, with “E. coli aldehyde dehydrogenase aldA (ecoALDH) has been reported to catalyze the intracellular enzymatic conversion of glycolaldehyde (GA) to glycolic acid (e.g., Wada et al. 2005; Morishige et al., 2007; Pandit et al., 2019; Pandit et al., 2021).” left out

[4] = tested on: Gluconobacter oxydans zinc-dependent medium-chain alcohol dehydrogenase Gox0313, SEQ ID NO: 206; settings: role: substrate, Zhang et al., 2015, cited from earlier work
[5] = substrate: OCCO; assay: Alcohol dehydrogenase (EG oxidation) Michaelis-Menten kinetics, gmoADH; format: biochemical, Gluconobacter morbifer; settings: other: role: substrate, 100 mM Tris-HCl pH 8.5, 30 °C, saturating NAD, EG 1-100 mM
Excerpt: as §1, §2
(§5) The candidate alcohol dehydrogenase enzymes were next characterized for their enzymatic activity. […] Reactions were initiated by the addition of the purified enzyme and enzymatic activity was measured by monitoring the formation of the product (glycolaldehyde) over time as described in Example 8.1. […]

[6] = substrate: OCCO; assay: Alcohol dehydrogenase (EG oxidation) Michaelis-Menten kinetics, goxADH; format: biochemical, Gluconobacter oxydans; settings: other: role: substrate, 100 mM Tris-HCl pH 8.5, 30 °C, saturating NAD, EG 1-100 mM
Excerpt: as §1, §2, §5

[7] = substrate: OCCO; assay: Alcohol dehydrogenase (EG oxidation) Michaelis-Menten kinetics, gdiADH; format: biochemical, Gluconobacter diazotrophicus; settings: other: role: substrate, 100 mM Tris-HCl pH 8.5, 30 °C, saturating NAD, EG 1-100 mM
Excerpt: as §1, §2, §5

[8] = role: inhibitor, substrate inhibition, relative to ecoALDH
[9] = role: substrate, relative to ecoALDH
[10] = role: substrate, versus ecoALDH

Molecule: O=CCO [glycolaldehyde]
- Relative KI ([1]; role: inhibitor, substrate inhibition): 1.0
- Relative kcat ([1]; role: substrate): 1.0
- resistance to substrate inhibition, fold higher than ecoALDH ([2]; role: inhibitor, glycolaldehyde substrate inhibition, versus ecoALDH): 5.6 fold
- Relative KI [2, 8]: 5.6
- Relative kcat [2, 9]: 5.3
- catalytic turnover rate, fold higher than ecoALDH [2, 10]: 5.3 fold
- Relative KI [3, 8]: 1.3
- Relative kcat [3, 9]: 5.8
- catalytic turnover rate, fold higher than ecoALDH [3, 10]: 5.8 fold
- turnover and catalytic efficiency for glycolaldehyde as a substrate ([4]; compared to ethylene glycol): higher turnover and catalytic efficiency
- affinity and catalytic rate for glycolaldehyde reduction to ethylene glycol ([4]; compared to the oxidation of ethylene glycol): higher affinity and catalytic rate

B1: Gluconobacter morbifer alcohol dehydrogenase gmoADH, SEQ ID NO: 207 (Gluconobacter morbifer G707) (protein)
chain: MADTMQAAVVREFGKPLSIERVPVPEIRPNQILVKVETCGVCHTDLHAARGDWPTKPNPPFIPGHEGVGRIVALGSQVGDFVKVGDRVGVPWLYSACGHCEHCLGGWETLCEKQEDTGYSVNGCFAEYVAADPNYVAHLPENIDPLETSPVLCAGLTVYKGLKMTEARPGQWVAVSGIGGLGQMAVQYAVAMGMNVVAVDIDDGKLETAKKLGAVLTVNAKDRDPAKFVQQEIGGAHGALVTAVGRTAFAQAMGYARRGGTIVLNGLPPGDFPISIFDMVMNGTTVRGSIVGTRLDMIEALDFFARGKVKSVVTADKLENINTIFDNLQNGRLAGRTVLDFRS
- Km [5]: 200 ± 44 μM EG
- Vmax [5]: 4.9 ± 0.8 µmol/min/mg

B2: Gluconobacter oxydans alcohol dehydrogenase goxADH (Gox0313), SEQ ID NO: 206 (Gluconobacter oxydans 621H) (protein)
chain: MADTMLAAVVREFGKPLSIERLPIPDIKPHQILVKVDTCGVCHTDLHAARGDWPSKPNPPFIPGHEGVGHIVAVGSQVGDFVKTGDVVGVPWLYSACGHCEHCLGGWETLCEKQDDTGYTVNGCFAEYVVADPNYVAHLPSTIDPLQASPVLCAGLTVYKGLKMTEARPGQWVAVSGVGGLGQMAVQYAVAMGMNVVAVDIDDEKLATAKKLGASLTVNAKDTDPARFIQQQIGGAHGALVTAVGRTAFSQAMGYARRGGTIVLNGLPPGDFPVSIFDMVMNGTTIRGSIVGTRLDMIEAMDFFARGKVKSVVTPGKLENINTIFDDLQNGRLEGRTVLDFRS
- Vmax [6]: 2.0 ± 0.1 µmol/min/mg

B3: Gluconobacter diazotrophicus alcohol dehydrogenase gdiADH, SEQ ID NO: 208 (Gluconacetobacter diazotrophicus PA1 5) (protein)
chain: MRSADTILGGTSMTGKMKAAVVREFGKPLTIEELDIPSIRPDQILVKMDACGVCHTDLHAARGDWPVKPNPPFIPGHEGVGHVVSVGSAVKWVKLGDVVGVPWLYSACGHCEHCLGGWETLCASQDDTGYTVNGCFAEYVVADPSYVAHLPKTIDPLQVAPVLCAGLTVYKGLKMTDTKPGDWVAVSGVGGLGQMAVQYGVAMGMNVIAVDIDDEKLATAKALGAALTVNARATDPAPFIQSQVGGAHGALVTAVSRSAFSQAMGFARRGGTIVLNGLPPGEFPISIFDMVMAGTTVRGSIVGTRLDMIEAVSFFADGKVKTVIEPDRLENINQIFTDLEEGKIQGRKVLDFRQ
- Km [7]: 230 ± 87 μM EG
- Vmax [7]: 7.5 ± 2.1 µmol/min/mg

From US20260357306A1, “ONE-POT FERMENTATIVE PRODUCTION OF GLYCOLATE OR OTHER HYDROXYCARBOXYLIC ACIDS” (PHYCUS BIOTECHNOLOGIES INC., priority 2023, published 2026)
